# Test results published in publication PMC8464984, “AimR Adopts Preexisting Dimer Conformations for Specific Target Recognition in Lysis-Lysogeny Decisions of Bacillus Phage phi3T” (Biomolecules, 2021).
# T1: phAimR wild type (Bacillus phage phi3T, UniProt P0DOE3 1-378)
# T1 sequence: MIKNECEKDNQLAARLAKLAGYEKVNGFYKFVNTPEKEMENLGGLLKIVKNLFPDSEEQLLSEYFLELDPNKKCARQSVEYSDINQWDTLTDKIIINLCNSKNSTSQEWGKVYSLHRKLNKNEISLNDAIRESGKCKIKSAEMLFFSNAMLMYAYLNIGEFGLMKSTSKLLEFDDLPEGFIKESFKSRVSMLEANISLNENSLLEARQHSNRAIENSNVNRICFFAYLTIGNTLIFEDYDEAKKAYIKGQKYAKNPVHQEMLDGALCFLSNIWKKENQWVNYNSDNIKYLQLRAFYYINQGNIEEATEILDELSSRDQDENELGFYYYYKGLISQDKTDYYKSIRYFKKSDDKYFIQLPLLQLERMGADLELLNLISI
# B1: phi3T target DNA 41 bp, FAM probe (dsDNA)
# DNA 1: GAAATGTCCAGAAATTCAAAAATCAAAAAATAAGAACATGG
# DNA 2: CCATGTTCTTATTTTTTGATTTTTGAATTTCTGGACATTTC
# How the values were obtained:
# [1] = target: T2, phAimR dimer (N103C-labelled) (Bacillus phage phi3T, UniProt P0DOE3, C136S/C223S/C267S/C6S/C74S/C99S/N103C); assay: smFRET titration of phAimR dimer labelled at N103C (Alexa488/Cy5); type: binding; conditions: titration of SAIRGA (20-500 nM) or target DNA (500-8000 nM), GMPRGA at 500 nM
# T2 construct: 6xHis (N, cleaved yes); made in house; host or cells: Escherichia coli BL21 (DE3)
# Protocol: (§1) The cysteine substitutions of phAimR (phAimR^C6S/C74S/C99S/C136S/C223S/C267S/N103C or phAimR^C6S/C74S/ C99S/C136S/C223S/C267S/D174C) were generated with a standard PCR-based strategy. Proteins were prepared in the same way as the wild-type phAimR. Alexa Fluor 488 C5 maleimide (Alexa488, A10254, Thermo Fisher, Shanghai, China) and Cy5 maleimide (Cy5, PA15131, GE Healthcare, Shanghai, China) were used as fluorescence donor and acceptor, respectively. A desalting column (HiPrep 26/10, GE Healthcare, Shanghai, China) was used to exchange the protein buffer into the conjugation buffer containing 20 mM phosphate (pH 7.4) and 100 mM NaCl. The protein fraction was collected in premixed Alexa488 and Cy5 dyes. The conjugation of phAimR was performed with Alexa488 and Cy5 at a molar ratio of 1:4:4. Conjugation reaction was performed for 3 h at room temperature in the dark, and the mixture was then purified using a Source-Q column (GE Healthcare, Shanghai, China). The fractions of double-labeled protein that had absorption at 280 nm, 493 nm and 640 nm were collected for smFRET data collection.
# (§2) The laser confocal fluorescence microscope MicroTime 200 (PicoQuant, Berlin, Germany) was used for single-molecule imaging, and a pulsed interleaved excitation (PIE) scheme was used with two SPCM-AQRH detectors (Excelitas, Waltham, MA, USA) for recording fluorescence time traces at two different wavelengths. Two picosecond-pulsed diode laser heads (LDH-P-C-485 and LDH-P-C-640; PicoQuant, Berlin, Germany) were driven by a PDL 828 Sepia II driver (PicoQuant) at a repetition rate of 40 MHz, which allowed interleaved excitations for Alexa488 and Cy5. Each laser was coupled to the inverted microscope IX 73 (Olympus, Beijing, China) through a single-mode fiber, and was reflected by a dichroic mirror through a water-immersion objective (UPLSAPO 60×, N.A. 1.20). The protein sample was loaded onto a hybridization chamber (Thermo Fisher) glued to a glass coverslip (Thermo Fisher, Shanghai, China). The laser confocal point was set to about 50 μm above the coverslip. The excitation power at the back of the objective was about 100 μW for the 485 nm laser and about 35 μW for the 640 nm laser, as estimated with a power meter (PM20-FC; Thorlabs, Shanghai, China). Focused to a 100 μm pinhole, the fluorescence emission from the excited protein molecule was collected with the same objective. The donor and acceptor emissions were separated with a dichroic mirror (T635lpxr; Chroma, Xiamen, China). The donor emission was filtered with a 520/35 BP band pass, and the acceptor emission was filtered with a 690/70 BP band pass, before being focused onto the two SPCM-AQRH detectors.
# (§3) The fluorescence outputs were recorded with a TimeHarp 260 PCI board (PicoQuant, Berlin, Germany) built into a PC workstation, and the data were stored in the time-tagged time-resolved module (PicoQuant, Berlin, Germany). The photon counts including fDex/Dem, fDex/Aem and fAex/Aem were obtained by binning the photons in 1 ms bins using SymPhoTime64 software (PicoQuant, Berlin, Germany). […] With all three fluorescence time traces recorded, the signals from the donor-only or acceptor-only protein molecules were filtered out, so as to ensure that an fDex/Aem photon only arises from a doubly labeled protein. […]
# [2] = target: T3, phAimR dimer (D174C-labelled) (Bacillus phage phi3T, UniProt P0DOE3, C136S/C223S/C267S/C6S/C74S/C99S/D174C); assay: smFRET titration of phAimR dimer labelled at D174C (Alexa488/Cy5); type: binding; conditions: titration of SAIRGA or target DNA, GMPRGA at 500 nM
# T3 construct: 6xHis (N, cleaved yes); made in house; host or cells: Escherichia coli BL21 (DE3)
# Protocol: as §1, §2, §3
# [3] = tested on: phAimR–target DNA interaction; assay: Electrophoretic mobility shift assay, phAimR binding to target DNA; type: biochemical, Bacillus phage phi3T; conditions: 5 nM FAM-labelled 41 bp DNA; 0, 0.037, 0.11, 0.33 and 1 M (so in the source) phAimR, peptide 10-fold molar excess; 25 mM Tris-HCl pH 8.0, 150 mM NaCl, room temperature, 10 min; three biological replicates
# Protocol: DNA probes were annealed using boiling water with FAM-labeled primers to generate the 41 bp DNA fragment (70262-70302, 5′ […] 3′) from phi3T bacteriophage genome. The labeled probes (5 nM) were incubated with 0, 0.037, 0.11, 0.33 and 1 M phAimR proteins or peptide-bound phAimR complex (peptide is 10-fold molar excess of phAimR) in a buffer containing 25 mM Tris-HCl (pH 8.0), 5 mM MgCl2, 5 mM DTT, 0.1 mg·mL^−1 BSA, 10% glycerol and 150 mM NaCl at room temperature for 10 min. The reactions were resolved on 6% native acrylamide gels (37.5:1 acrylamide:bis-acrylamide) in 0.5× TBE buffer at 100 V for 75 min. Images of the gels were obtained using FLA5100 (Typhoon, Shanghai, China).
# Figure S 6. EMSA characterize the interaction between phAimR and target DNA. The phi 3T-derived SAIRGA peptide abolishes the DNA binding ability of phAimR, whereas the SP beta-derived GMPRGA peptide has no effects. Each EMSA experiments was conducted for three biological replicates.
# F ig u re S 7. Comparison of cross-correlation function GAD(τ) between apo phAimR ( b l a c k line), in complex with 500 nM SAIRGA peptide (blue line) and 8000 nM target DNA (red line). FCS data was collected forthe N103C dyes -labeled phAimR dimer. […]
# spAimR = conditions: cited from earlier work
# phAimR wild type = target: T1, phAimR wild type; assay: EMSA; no peptide; 5 mM MgCl2; EMSA: 25 mM Tris-HCl pH 8.0, 150 mM NaCl, 5 mM MgCl2, 5 mM DTT, 0.1 mg/mL BSA, 10% glycerol, room temperature 10 min, 5 nM probe, protein 0-1 (printed 'M', probably uM); smFRET titration buffer not in the material; conditions: protein: recombinant; tags: N-terminal 6xHis removed with drICE protease; chain copies: 2; label: FAM; blunt
# T2 sequence (P0DOE3 whole entry C6S/C74S/C99S/N103C/C136S/C223S/C267S): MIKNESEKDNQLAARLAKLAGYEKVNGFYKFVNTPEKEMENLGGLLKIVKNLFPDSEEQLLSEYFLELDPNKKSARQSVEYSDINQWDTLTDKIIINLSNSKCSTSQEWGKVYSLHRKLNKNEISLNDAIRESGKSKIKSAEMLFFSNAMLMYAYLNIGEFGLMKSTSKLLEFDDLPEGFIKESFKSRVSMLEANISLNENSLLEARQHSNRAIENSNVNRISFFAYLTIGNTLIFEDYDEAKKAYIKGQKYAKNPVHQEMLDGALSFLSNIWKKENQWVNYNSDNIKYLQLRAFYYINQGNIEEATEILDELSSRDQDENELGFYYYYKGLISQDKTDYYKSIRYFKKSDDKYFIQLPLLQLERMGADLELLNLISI
# T3 sequence (P0DOE3 whole entry C6S/C74S/C99S/C136S/D174C/C223S/C267S): as the sequence (P0DOE3 whole entry C6S/C74S/C99S/N103C/C136S/C223S/C267S) above, with C103N, D174C counted along it
molecule,measurement,setting,value
"GMPRGA [SPbeta arbitrium peptide (GMPRGA), negative control, reference compound]",effect on smFRET profile / conformational state enriched,[1],no perturbation on the smFRET profile of phAimR
same,effect on smFRET profile / conformational state enriched,[2],no perturbation on the smFRET profile of phAimR
same,effect on DNA binding ability of phAimR (EMSA),[3],no effects
same,Kd,spAimR,4.6 nM
B1,binding result,phAimR wild type,binds
